Test results reported in ChEMBL document CHEMBL1201862, “PubChem BioAssay data set” (2004).
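Following 48 hours of exposure in 96-well plates, responses at five concentrations were used to interpolate endpoints linearly. The concentration for 50% growth inhibition is given as GI50.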 The source made the active and inactive calls. Rule as the data show it: active = GI50 up to about 1.1 µM and inactive = higher.

Assays:
Experiment in all cases: growth of human tumour cells (NCI), 48 h
LXFL 529 = system: LXFL 529
KM-20L2 = system: KM-20L2
KM12 = system: KM12
SK-MEL-2 = system: SK-MEL-2
RPMI-8226 = system: RPMI-8226
UO-31 = system: UO-31
NCI-H522 = system: NCI-H522
ACHN = system: ACHN
M19-MEL = system: M19-MEL
COLO 205 = system: COLO 205
UACC-257 = system: UACC-257
HCC 2998 = system: HCC 2998
HCT-15 = system: HCT-15
HCT-116 = system: HCT-116
SK-MEL-28 = system: SK-MEL-28
TK-10 = system: TK-10
NCI-H226 = system: NCI-H226
CCRF-CEM = system: CCRF-CEM
MOLT-4 = system: MOLT-4
UACC-62 = system: UACC-62
IGROV-1 = system: IGROV-1
M14 = system: M14
U-251 = system: U-251
K562 = system: K562
HT-29 = system: HT-29
SNB-78 = system: SNB-78
HL-60 = system: HL-60
CAKI-1 = system: CAKI-1
SF-268 = system: SF-268
OVCAR-8 = system: OVCAR-8
A549 = system: A549
A498 = system: A498
LOX IMVI = system: LOX IMVI
OVCAR-4 = system: OVCAR-4
786-0 = system: 786-0
DLD-1 = system: DLD-1
SNB-75 = system: SNB-75
RXF 631 = system: RXF 631
SNB-19 = system: SNB-19
SN12C = system: SN12C
HOP-92 = system: HOP-92
SW-620 = system: SW-620
OVCAR-5 = system: OVCAR-5
XF498 = system: XF498
HOP-62 = system: HOP-62
DMS-273 = system: DMS-273
HOP-18 = system: HOP-18
OVCAR-3 = system: OVCAR-3
NCI-H23 = system: NCI-H23
EKVX = system: EKVX
SF-295 = system: SF-295
SK-OV-3 = system: SK-OV-3
Malme-3M = system: Malme-3M
NCI-H460 = system: NCI-H460
SR = system: SR
SK-MEL-5 = system: SK-MEL-5
SF-539 = system: SF-539
DMS-114 = system: DMS-114
RXF 393 = system: RXF 393

## COC(=O)C1CCC(N2C(=O)CCC2C(=O)OC)=N1 (stereo not given)
LXFL 529
  GI50: > 100 µM (inactive)
KM-20L2
  GI50: > 100 µM (inactive)
KM12
  GI50: > 100 µM (inactive)
SK-MEL-2
  GI50: > 100 µM (inactive)
RPMI-8226
  GI50: > 100 µM (inactive)
UO-31
  GI50: > 100 µM (inactive)
NCI-H522
  GI50: > 100 µM (inactive)
ACHN
  GI50: > 100 µM (inactive)
M19-MEL
  GI50: > 100 µM (inactive)
COLO 205
  GI50: > 100 µM (inactive)
UACC-257
  GI50: > 100 µM (inactive)
HCC 2998
  GI50: > 100 µM (inactive)
HCT-15
  GI50: > 100 µM
HCT-116
  GI50: > 100 µM (inactive)
SK-MEL-28
  GI50: > 100 µM (inactive)
TK-10
  GI50: > 100 µM (inactive)
NCI-H226
  GI50: > 100 µM (inactive)
CCRF-CEM
  GI50: > 100 µM (inactive)
MOLT-4
  GI50: > 100 µM (inactive)
UACC-62
  GI50: > 100 µM (inactive)
IGROV-1
  GI50: > 100 µM (inactive)
M14
  GI50: > 100 µM (inactive)
U-251
  GI50: > 100 µM (inactive)
K562
  GI50: > 100 µM (inactive)
HT-29
  GI50: > 100 µM (inactive)
SNB-78
  GI50: > 100 µM (inactive)
HL-60
  GI50: > 100 µM (inactive)
CAKI-1
  GI50: > 100 µM (inactive)
SF-268
  GI50: > 100 µM (inactive)
OVCAR-8
  GI50: > 100 µM (inactive)
A549
  GI50: > 100 µM (inactive)
A498
  GI50: > 100 µM (inactive)
LOX IMVI
  GI50: > 100 µM (inactive)
OVCAR-4
  GI50: > 100 µM (inactive)
786-0
  GI50: > 100 µM (inactive)
DLD-1
  GI50: > 100 µM (inactive)
SNB-75
  GI50: > 100 µM (inactive)
RXF 631
  GI50: > 100 µM (inactive)
SNB-19
  GI50: > 100 µM (inactive)
SN12C
  GI50: > 100 µM (inactive)
HOP-92
  GI50: > 100 µM (inactive)
SW-620
  GI50: > 100 µM (inactive)
OVCAR-5
  GI50: > 100 µM (inactive)
XF498
  GI50: > 100 µM (inactive)
HOP-62
  GI50: > 100 µM (inactive)
DMS-273
  GI50: > 100 µM (inactive)
HOP-18
  GI50: > 100 µM (inactive)
OVCAR-3
  GI50: > 100 µM (inactive)
NCI-H23
  GI50: > 100 µM (inactive)
EKVX
  GI50: > 100 µM (inactive)
SF-295
  GI50: > 100 µM (inactive)
SK-OV-3
  GI50: > 100 µM (inactive)
Malme-3M
  GI50: > 100 µM (inactive)
NCI-H460
  GI50: > 100 µM (inactive)

## Nc1nc(=O)[nH]c2c1cnn2Cc1ccccc1
LXFL 529
  GI50: > 100 µM (inactive)
KM-20L2
  GI50: 1.62 µM (inactive)
KM12
  GI50: > 100 µM (inactive)
SK-MEL-2
  GI50: > 100 µM (inactive)
RPMI-8226
  GI50: > 100 µM (inactive)
SR
  GI50: > 100 µM (inactive)
SK-MEL-5
  GI50: > 100 µM (inactive)
UO-31
  GI50: > 100 µM (inactive)
ACHN
  GI50: > 100 µM (inactive)
COLO 205
  GI50: > 100 µM (inactive)
UACC-257
  GI50: > 100 µM (inactive)
HCT-15
  GI50: > 100 µM
HCT-116
  GI50: > 100 µM (inactive)
SK-MEL-28
  GI50: 1.88 µM (inactive)
TK-10
  GI50: 1.35 µM (inactive)
NCI-H226
  GI50: 1.41 µM (inactive)
CCRF-CEM
  GI50: > 100 µM (inactive)
MOLT-4
  GI50: > 100 µM (inactive)
IGROV-1
  GI50: > 100 µM (inactive)
M14
  GI50: > 100 µM (inactive)
U-251
  GI50: 1.4 µM (inactive)
K562
  GI50: > 100 µM (inactive)
SF-539
  GI50: > 100 µM (inactive)
HT-29
  GI50: > 100 µM (inactive)
SNB-78
  GI50: 1.46 µM (inactive)
HL-60
  GI50: > 100 µM (inactive)
CAKI-1
  GI50: > 100 µM (inactive)
SF-268
  GI50: > 100 µM (inactive)
OVCAR-8
  GI50: > 100 µM (inactive)
A549
  GI50: > 100 µM (inactive)
A498
  GI50: > 100 µM (inactive)
LOX IMVI
  GI50: > 100 µM (inactive)
OVCAR-4
  GI50: > 100 µM (inactive)
DLD-1
  GI50: > 100 µM (inactive)
DMS-114
  GI50: > 100 µM (inactive)
SNB-75
  GI50: > 100 µM (inactive)
RXF 631
  GI50: > 100 µM (inactive)
SNB-19
  GI50: > 100 µM (inactive)
SN12C
  GI50: > 100 µM (inactive)
HOP-92
  GI50: > 100 µM (inactive)
SW-620
  GI50: > 100 µM (inactive)
OVCAR-5
  GI50: 1.47 µM (inactive)
XF498
  GI50: > 100 µM (inactive)
DMS-273
  GI50: > 100 µM (inactive)
HOP-18
  GI50: > 100 µM (inactive)
NCI-H23
  GI50: 1.56 µM (inactive)
RXF 393
  GI50: 1.4 µM (inactive)
EKVX
  GI50: > 100 µM (inactive)
SF-295
  GI50: > 100 µM (inactive)
Malme-3M
  GI50: > 100 µM (inactive)
NCI-H460
  GI50: > 100 µM (inactive)
